# In patent US9920058B2, “Molecules with potent DHFR binding affinity and antibacterial activity” (Georgia Tech Research Corporation, priority 2013, dated 2018):
# Where two headings read alike, the source gives them in different places.
# Legend:
# [1] = tested on: colon carcinoma cells HCT-116; experiment: Cytotoxicity assay on HCT-116; format: cell-based; conditions: for IC50: Homo sapiens, HCT-116
# [2] = tested on: amphotericin-resistant Candida albicans (ARCA); experiment: Antifungal growth inhibition (MIC), ARCA; format: cell-based; conditions: for MIC: read-out: ARCA (MIC)
# [3] = tested on: vancomycin-resistant E. faecium (ATCC700221) (VREF); experiment: Antimicrobial growth inhibition (MIC), VREF
# [4] = target: dihydrofolate reductase (DHFR) from Escherichia coli (Escherichia coli, UniProt P0ABQ4); experiment: biochemical; format: binding; conditions: for ΔTm: unit given in Table 4
# Description: The thermal shift assay was performed in a control reaction mix containing 100 mM HEPES pH 7.3, 150 mM NaCl, 5× Sypro-orange (an extrinsic fluorophore reporter from Invitrogen), 10 micromolar of the protein dihydrofolate reductase in 20 μl reaction mix. The test reaction contained 1 mM of the said compound apart from all the other constituents as mentioned above. Protein melting curves were obtained from samples aliquoted in 96-well plates using a RealPlex quantitative PCR from Eppendorf. […] A heating ramp of 1 degree Celsius/min was used from 25 degree Celsius to 74 degree Celsius and one data point was acquired for each degree increment. Appropriate dye controls and protein controls were incorporated. All the experiments were done with minimum two replicates and the mean value of the replicate Y was considered for further analysis.
# Protein melting curves were obtained from samples aliquoted in 96-well plates using a RealPlex quantitative PCR instrument from Eppendorf (Eppendorf, N.Y., USA), with Sypro orange dye from Invitrogen as the fluorescent probe. A uniform final concentration of 5× (supplied as a 5000× stock solution) was used in all experiments. […] A heating ramp of 1° C./min from 25° C. to 74° C. was used, and one data point acquired for each degree increment. For standardization, different buffers and pH were checked. Thereafter, 100 mM HEPES pH 7.3 and 150 mM NaCl were used in all unfolding experiments. The volume of each reaction was 20 μl, and appropriate dye and protein controls were included. All experiments were done with a minimum of two replicates, with the mean value considered for further analysis. […] An additional control to rule out drug-dye interaction was carried out with all the constituents kept constant except for the protein of interest. The protein/protein-drug curves were reported after subtracting the respective dye alone/drug-dye curves.
# Each melting curve was assigned a quality score (Q), the ratio of the melting-associated increase in fluorescence (ΔFmelt) to the total fluorescence range (ΔFtotal). […] Though an arbitrary Q value cutoff was not applied to judge curve quality, the curves were manually curated with Q values reported.
# Subsequent to standardization, the validity of the top 1% of […]^comb's predictions on the test set of eight diverse proteins was examined. To be conservative, we focused only on those protein/ligand pairs showing single sigmoidal thermal transition curves. The fit to Boltzmann's equation (Eq. 1) was employed to estimate the melting temperature from the observed intensity, I.
# [formula] Imin and Imax are the minimum and maximum intensities; a denotes the slope of the curve at the transition midpoint temperate, Tm. To estimate thermodynamic parameters, both van't Hoff and Gibbs-Helmholtz analyses were done.
# [formula] KL(Tm) is the ligand association constant and [L] is the free ligand concentration at Tm([LTm]˜[L]total, when [L]total>>the total concentration of protein. KD is the inverse of KL(Tm).
# E. coli DH5α = experiment: Antimicrobial growth inhibition (MIC), E. coli DH5α; conditions: Escherichia coli
# [5] = tested on: several cancer cell lines including melanoma, prostrate, colon, and breast; conditions: cited from earlier work
# [6] = tested on: methicillin-resistant S. aureus (ATCC 33591) (MRSA); experiment: Antimicrobial growth inhibition (MIC), MRSA
# [7] = tested on: multi-drug resistant E. coli SMS-3-4 (ATCC BAA-1743) (MDREC); experiment: Antimicrobial growth inhibition (MIC), MDREC; conditions: Escherichia coli
# [8] = Table 6, ND: No significant inhibition, read-out: HCT-116 (IC-50), inhibitory concentration for 50% growth inhibition
# [9] = Enterococcus faecium, ATCC700221, read-out: VREF (MIC), minimum inhibitory concentration required for 90% clearance
# [10] = Table 5, computed from the thermal shifts obtained, read-out: KD (Approx)
# [11] = Candida albicans, Table 5, unit from Table 1, ND: non determinable/no significant inhibition
# [12] = Table 5, unit from Table 6, ND: non determinable/no significant inhibition
# [13] = Table 6, ND: No significant inhibition
compound,measurement,setting,value
"CN(Cc1cnc2nc(N)nc(N)c2n1)c1ccc(C(=O)N[C@@H](CCC(=O)O)C(=O)O)cc1 [NSC740, methotrexate]",IC50,[1]; [8],0.048 µg/mL
same,MIC,[2]; Candida albicans,500 µg/mL
same,MIC,[3]; [9],500 µg/mL
CCOc1ccc(NC(=O)c2cc3ccccc3cc2O)cc1 [NSC50690],Kd,[4]; [10],463 µM
same,ΔTm,[4]; Table 5,0.23 °C
Nc1ccc(NC(=O)c2ccc(C(=O)Nc3ccc(N)cc3)cc2)cc1 [NSC55152],Kd,[4]; [10],73.8 µM
same,ΔTm,[4]; Table 5,5.89 °C
"Nc1ccc(-c2nc3nc(N)nc(N)c3nc2-c2ccc(N)cc2)cc1 [NSC61642, 6,7-bis(4-aminophenyl) pteridine-2,4-diamine, reference compound]",Kd,[4]; [10],2.03 µM
same,MIC,[2]; [11],250 µg/mL
O=C(Nc1ccc(Oc2ccc(NC(=O)Nc3ccc([N+](=O)[O-])cc3)cc2)cc1)Nc1ccc([N+](=O)[O-])cc1 [NSC80735],HCT-116 (IC-50),[1]; [12],10.9 µg/mL
same,Kd,[4]; [10],1.71 µM
same,ΔTm,[4]; Table 5,18.16 °C
same,Kd,"[4]; text b322, read-out: KD / affinity",1.7 µM
C1=Cc2ccccc2Nc2ccccc21 [NSC123458],Kd,[4]; [10],5.64 µM
same,ΔTm,[4]; Table 5,14.17 °C
COc1cc(NCc2ccccc2O)c2ncccc2c1 [NSC130801],Kd,[4]; [10],75 µM
same,ΔTm,[4]; Table 5,5.84 °C
CC(C)=C(c1ccc(Cl)cc1)c1c(N)ncnc1N [NSC157522],Kd,[4]; [10],19.5 µM
same,ΔTm,[4]; Table 5,10.13 °C
O=C(Nc1ccc(C(=O)O)c(O)c1)c1ccccc1 [NSC159686],Kd,[4]; [10],12.7 µM
same,ΔTm,[4]; Table 5,11.52 °C
"Nc1ccc(Cn2ccc3c4c(N)nc(N)nc4ccc32)cc1 [NSC309401, 7-[(4-aminophenyl)methyl]-7H-pyrrolo[3,2-f]quinazoline-1,3-diamine]",IC50,"[1]; Table 5, unit from Table 6, ND: non determinable/no significant inhibition, read-out: HCT-116 (IC-50)",0.13 µg/mL
same,IC50,[1]; [8],0.13 µg/mL
same,MIC90,"[2]; Candida albicans, read-out: MIC (MIC-90, minimum inhibitory concentration for 90% growth inhibition), Table 1, ARCA",125 µg/mL
same,MIC,[2]; [11],125 µg/mL
same,MIC90,"[3]; Enterococcus faecium, ATCC700221, read-out: MIC (MIC-90, minimum inhibitory concentration for 90% growth inhibition)",31.2 µg/mL
same,MIC,"[3]; Enterococcus faecium, ATCC700221, read-out: VREF (MIC)",31.2 µg/mL
same,MIC,[3]; [9],31.2 µg/mL
same,MIC,E. coli DH5α; read-out: DH5α (MIC),7.81 µg/mL
same,MIC,"E. coli DH5α; read-out: DH5α (MIC), minimum inhibitory concentration required for 90% clearance",7.81 µg/mL
same,MIC90,"E. coli DH5α; read-out: MIC (MIC-90, minimum inhibitory concentration for 90% growth inhibition)",7.81 µg/mL
same,activity against cancer cell lines (potency not revealed),[5],has activity
same,MIC90,"[6]; Staphylococcus aureus, ATCC33591|MRSA, read-out: MIC (MIC-90, minimum inhibitory concentration for 90% growth inhibition)",31.2 µg/mL
same,MIC,"[6]; Staphylococcus aureus, ATCC33591|MRSA, read-out: MRSA (MIC), minimum inhibitory concentration required for 90% clearance",31.2 µg/mL
same,MIC,"[6]; Staphylococcus aureus, read-out: MRSA (MIC)",31.2 µg/mL
same,MIC,"[7]; ATCCBAA1743, read-out: MDREC (MIC), minimum inhibitory concentration required for 90% clearance",125 µg/mL
same,MIC90,"[7]; ATCCBAA1743, read-out: MIC (MIC-90, minimum inhibitory concentration for 90% growth inhibition)",125 µg/mL
N/C(CC(=O)Nc1cc(C(F)(F)F)ccc1Cl)=N\O [NSC379536],Kd,[4]; [10],28.9 µM
same,ΔTm,[4]; Table 5,8.86 °C
"CCc1nc(N)nc(N)c1-c1ccc(N(C)Cc2ccccc2)c([N+](=O)[O-])c1 [NSC382035, methylbezoprim, reference compound]",HCT-116 (IC-50),[1]; [12],0.182 µg/mL
same,"HCT-116 (IC-50), inhibitory concentration for 50% growth inhibition",[1]; [13],0.182 µg/mL
same,ARCA (MIC),"[2]; Table 5, unit from Table 1, ND: non determinable/no significant inhibition",250 µg/mL
same,VREF (MIC),[3]; [12],31.25 µg/mL
same,"VREF (MIC), minimum inhibitory concentration required for 90% clearance",[3]; [13],31.25 µg/mL
same,MRSA (MIC),[6]; [12],31.25 µg/mL
same,"MRSA (MIC), minimum inhibitory concentration required for 90% clearance",[6]; [13],31.25 µg/mL
"C#CCC(Cc1cnc2nc(N)nc(N)c2n1)c1ccc(C(=O)N[C@@H](CCC(=O)O)C(=O)O)cc1 (stereo partly drawn) [NSC754230, pralatrexate, reference compound]",IC50,[1]; [8],< 0.031 µg/mL
same,Kd,[4]; [10],0.499 µM
